Measured values: the supplement of paper PMC4862054

Columns and labels:
BT-474 [1] = experiment: normalised viability (% of control), CellTiter-Blue; higher = more viable cells (about 100 = DMSO control); settings: 100 nM; incubation time: 72 h
Protocol: (§1)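 DSRT, CellTiter-Blue viability, 72 h incubation. Signal is normalised to DMSO and benzethonium chloride controls. Value is the normalised response at dose 3.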

BT-549 = experiment: as above; settings: 100 nM; incubation time: 72 h
Protocol: as §1

CAL-120 = experiment: as above; settings: 100 nM; incubation time: 72 h
Protocol: as §1

CAL-148 = experiment: as above; settings: 10 nM; incubation time: 72 h
Protocol: as §1

CAL-51 = experiment: as above; settings: 10 nM; incubation time: 72 h
Protocol: as §1

CAL-85-1 = experiment: as above; settings: 10 nM; incubation time: 72 h
Protocol: as §1

DU-4475 [2] = experiment: as above; settings: 10 nM; incubation time: 72 h
Protocol: as §1

HCC1143 [3] = experiment: as above; settings: 100 nM; incubation time: 72 h
Protocol: as §1

HCC1599 [4] = experiment: as above; settings: 100 nM; incubation time: 72 h
Protocol: as §1

HCC1937 [5] = experiment: as above; settings: 100 nM; incubation time: 72 h
Protocol: as §1

HDQ-P1 = experiment: as above; settings: 10 nM; incubation time: 72 h
Protocol: as §1

Hs578T [6] = experiment: as above; settings: 100 nM; incubation time: 72 h
Protocol: as §1

MDA-MB-231 = experiment: as above; settings: 100 nM; incubation time: 72 h
Protocol: as §1

MDA-MB-436 [7] = experiment: as above; settings: 100 nM; incubation time: 72 h
Protocol: as §1

MDA-MB-453 [8] = experiment: as above; settings: 10 nM; incubation time: 72 h
Protocol: as §1

MDA-MB-468 = experiment: as above; settings: 100 nM; incubation time: 72 h
Protocol: as §1

MFM-223 = experiment: as above; settings: 100 nM; incubation time: 72 h
Protocol: as §1

SK-BR-3 = experiment: as above; settings: 100 nM; incubation time: 72 h
Protocol: as §1

BT-474 [9] = experiment: normalised viability (% of control), CellTiter-Blue; higher = more viable cells (about 100 = DMSO control); settings: incubation time: 72 h
Outline: (§2)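 Breast cancer cell lines were treated for 72 h in 384-well format and measured by CellTiter-Blue fluorescence at 560/590 nm. Results were normalised per plate to vehicle (100) and a positive kill control (0). The entry is normalised viability at a single listed concentration of the series.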

DU-4475 [10] = experiment: as above; settings: incubation time: 72 h
Outline: as §2

HCC1143 [11] = experiment: as above; settings: incubation time: 72 h
Outline: as §2

HCC1599 [12] = experiment: as above; settings: incubation time: 72 h
Outline: as §2

HCC1937 [13] = experiment: as above; settings: incubation time: 72 h
Outline: as §2

Hs578T [14] = experiment: as above; settings: incubation time: 72 h
Outline: as §2

MDA-MB-436 [15] = experiment: as above; settings: incubation time: 72 h
Outline: as §2

MDA-MB-453 [16] = experiment: as above; settings: incubation time: 72 h
Outline: as §2

MDA-MB-453 [17] = experiment: drug sensitivity score (DSS), CellTiter-Blue viability (DSS (AUC-based score)); higher = stronger viability inhibition; extreme values may be limits of the assay; settings: incubation time: 72 h
Protocol: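 DSRT with the CellTiter-Blue (resazurin reduction) viability readout, fluorescence 560/590 nm, 72 h incubation. Plates were normalised to DMSO and benzethonium chloride controls. DSS is computed from the area under the fitted dose-response curve (5 or 9 concentrations).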

C=CCn1c(=O)c2cnc(Nc3ccc(N4CCN(C)CC4)cc3)nc2n1-c1cccc(C(C)(C)O)n1 [MK1775]
Settings	drug sensitivity score	normalised viability [%]
BT-474 [1]	–	94.6
BT-549	–	97.4
CAL-51	–	94.1
CAL-85-1	–	81.4
CAL-120	–	75.8
CAL-148	–	87.4
DU-4475 [2]	–	109
HCC1143 [3]	–	94.8
HCC1599 [4]	–	99.4
HCC1937 [5]	–	78.2
HDQ-P1	–	114
Hs578T [6]	–	83.2
MDA-MB-231	–	88.1
MDA-MB-436 [7]	–	86.3
MDA-MB-453 [8]	–	100
MDA-MB-453 [17]	15.1	–
MDA-MB-468	–	95.5
MFM-223	–	83.3
SK-BR-3	–	62.1

normalised viability [%]
Settings	BT-474 [9]	DU-4475 [10]	HCC1143 [11]	HCC1599 [12]	HCC1937 [13]	Hs578T [14]	MDA-MB-436 [15]	MDA-MB-453 [16]
3 nM	–	87.8	–	–	–	–	–	89.6
10 nM	94	–	109	86.4	77.7	111	113	–
30 nM	–	98.3	–	–	–	–	–	86.3
100 nM	–	75.7	–	–	–	–	–	88.7
1000 nM	33.9	–	55.7	59	34.1	34.4	37	–
10000 nM	35.7	–	23.7	45.3	27.2	16.2	21.4	–
